Tests used:
J774 = experiment: Cytotoxicity against mouse J774 cells assessed as growth inhibition after 72 hrs by MTT assay; assay type: functional, cell-based; conditions: J774, 72 h
WEHI-164 = experiment: Cytotoxicity against mouse WEHI164 cells assessed as growth inhibition after 72 hrs by MTT assay; assay type: functional, cell-based; conditions: WEHI-164, 72 h

| SMILES | IC50 (J774) | IC50 (WEHI-164) |
| --- | --- | --- |
| C[C@H](CCC1(O)O[C@H]2C[C@H]3[C@@H]4CC=C5C[C@@H](O)C[C@@H](O[C@@H]6O[C@H](CO)[C@H](O)[C@H](O)[C@H]6O)[C@]5(C)[C@H]4CC[C@]3(C)[C@H]2[C@@H]1C)CO[C@@H]1O[C@H](CO)[C@@H](O)[C@H](O)[C@H]1O[C@@H]1O[C@@H](C)[C@H](O)[C@@H](O)[C@H]1O (mixture of isomers) [ASCALONICOSIDE A1/A2] | 4 µg/mL | 3.7 µg/mL |
| C[C@H](CCC1(O)O[C@H]2C[C@H]3[C@@H]4CC=C5C[C@@H](O)C[C@@H](O[C@@H]6OC[C@@H](O)[C@H](O)[C@H]6O[C@@H]6O[C@@H](C)[C@H](O)[C@@H](O)[C@H]6O)[C@]5(C)[C@H]4CC[C@]3(C)[C@H]2[C@@H]1C)CO[C@@H]1O[C@@H](C)[C@H](O)[C@@H](O)[C@H]1O (mixture of isomers) | 3.5 µg/mL | 3.1 µg/mL |
| C[C@H](CCC1(O)O[C@H]2C[C@H]3[C@@H]4CC=C5C[C@@H](O)C[C@@H](O[C@@H]6O[C@H](CO)[C@H](O)[C@H](O)[C@H]6O[C@@H]6O[C@@H](C)[C@H](O)[C@@H](O)[C@H]6O)[C@]5(C)[C@H]4CC[C@]3(C)[C@H]2[C@@H]1C)CO[C@@H]1O[C@@H](C)[C@H](O)[C@@H](O)[C@H]1O (mixture of isomers) | 5.1 µg/mL | 4.7 µg/mL |

Source: ChEMBL document CHEMBL2346549, “Vavilosides A1/A2-B1/B2, new furostane glycosides from the bulbs of Allium vavilovii with cytotoxic activity” (Bioorg Med Chem, 2013)
